Where two headings read alike, the source gives them in different places.
Experiments:
[1] = test system: cysteamine-induced duodenal ulcers; test: Duodenal ulcers (cysteamine-induced); format: in vivo, Female Sprague-Dawley strain rats
Method: Female Sprague-Dawley strain rats, weighing about 200 g were deprived of food for 24 hours prior to experiment. Cysteamine 400 mg/kg was given subcutaneously once to the rats. The animals were provided food and libitum from the 7 hours later. The test drug was given orally as aqueous suspension after 7 hours, the administration of cysteamine, then daily×4. On the next morning of the last administration, the animals were sacrificed under ether anesthesia. The ulcer area (mm^2) was measured and described as ulcer index.

[2] = test system: gastric secretion; test: Influence to the gastric secretion (pylorus ligation); format: in vivo, Male Sprague-Dawley strain rats
Method: Male Sprague-Dawley strain rats, weighing 160-180 g were deprived of food but allowed free access to water for 20 hours prior to experiment. […] The test drug was given intraperitoneally immediately after pylorus ligation. The rats were sacrificed 3, 6 and 12 hours later and the stomachs removed. The gastric juice was collected and analyzed for volume. Then the gastric juice was centrifuged at 1300 g for 10 minutes at room temperature to give the supernatant. The total acidity and peptic activity of the supernatant were determined. Total acidity was determined by titrating with 0.01 N NaOH. […] Total acidity is shown as the titration volume (ml) and peptic activity is shown as the corresponding weight (mg) to crystal pepsin.

[3] = molecular target: urokinase (Homo sapiens, UniProt P00749); test: Inhibitory effects on urokinase (hydrolysis of N-acetylglycyl lysine methyl ester); format: biochemical; details: 37° C., 10 minutes; concentration not given
Method: The compounds of the formula (I) have excellent inhibitory effects on protease. The inhibitory effects were determined by the following methods: Inhibitory effects of the compounds on urokinase were determined according to the method described by A. J. Joeson et al (Throm. […]. 21, 259-272 (1969)). In particular, inhibitory effects of the compounds on hydrolysis of N-acetylglycyl lysine methyl ester by urokinase were determined (incubated at 37° C. for 10 minutes).

[4] = molecular target: T1, trypsin (Bos taurus, UniProt P00760); test: Inhibitory effects on trypsin (hydrolysis of p-tosylarginine methyl ester); format: biochemical; details: 37° C., 10 minutes; concentration not given
T1 sequence (P00760 24-246): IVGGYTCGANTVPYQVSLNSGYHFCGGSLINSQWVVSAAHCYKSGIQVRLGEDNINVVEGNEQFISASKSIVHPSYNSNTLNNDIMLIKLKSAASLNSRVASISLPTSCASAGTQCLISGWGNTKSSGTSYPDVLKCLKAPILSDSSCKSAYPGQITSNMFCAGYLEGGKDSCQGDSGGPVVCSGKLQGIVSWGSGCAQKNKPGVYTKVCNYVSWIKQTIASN
Method: In particular, inhibitory effects of the compounds on hydrolysis of p-tosylarginine methyl ester by trypsin were examined (incubated at 37° C. for 10 minutes).

[5] = Acute toxicity; details: mouse, in vivo, po, 7 days observation
Method: […]. The test drugs were given orally using gastric sonde. […] The LD50 value was calculated by the Probit method (C.I. Bliss).

[6] = molecular target: thrombin (Bos taurus, UniProt P00735); test: Inhibitory effects on thrombin (hydrolysis of p-tosylarginine methyl ester); format: biochemical; details: 37° C., 10 minutes; concentration not given
Method: The compounds of the formula (I) have excellent inhibitory effects on protease. The inhibitory effects were determined by the following methods:
Inhibitory effects of the compounds on thrombin were determined according to the method described by M. Muramatsu et al (The Journal of Biochemistry, Volume 65 (1), 17 (1969)). In particular, inhibitory effects of the compounds on hydrolysis of p-tosylarginine methyl ester by thrombin were examined (incubated at 37° C. for 10 minutes).

[7] = test system: acetic acid ulcers; test: Acetic acid ulcers; format: in vivo, Male Sprague-Dawley strain rats; details: for Ulcer Grade 1 (number of rats): ulcer area 0-10 mm^2; for Ulcer Grade 2 (number of rats): ulcer area 11-20 mm^2; for Ulcer Grade 3 (number of rats): ulcer area 21-30 mm^2; for Ulcer Grade 4 (number of rats): ulcer area 31-40 mm^2; for Ulcer Grade 5 (number of rats): ulcer area >40 mm^2
Method: Male Sprague-Dawley strain rats, weighing about 200 g were used. Under ether anesthesia 10% acetic acid solution (0.05 ml) was injected carefully between the serous membrane and the muscle near the pylorus, and the abdomen was closed. Thereafter, the animals were maintained under conditions and administered 1 ml/100 g of each test drug dissolved or suspended in 0.5% carboxymethylcellulose solution p.o. daily×10 starting from the next day of the operation. On the 11th day, the rats were sacrificed under ether anesthesia, and the stomachs were removed. The area of the ulcer was measured and graded into 5 degrees as an ulcer index according to the following method: […]

## N=C(N)NC[C@H]1CC[C@H](C(=O)Oc2ccccc2C(=O)OCc2ccccc2)CC1 [Compound 1]
[1]; 250 mg/kg orally
  Inhibition (%): 72.1%
  Ulcer Index (mm^2): 22.5 ± 3.9 mm^2
[1]; 500 mg/kg orally
  Inhibition (%): 85.5%
  Ulcer Index (mm^2): 11.7 ± 3.6 mm^2
[2]; 3 hours, 75 mg/kg i.p.
  Gastric Contents Volume: 2.6 ± 0.4 mL
  Gastric Contents Volume % change: 10.3%
  Titratable Acid Output: 39.2 ± 11.6 μEg
  Titratable Acid Output % change: 52.5%
  Titratable Pepsin Output: 5.7 ± 1.5 mg
  Titratable Pepsin Output % change: 1.7%
[2]; 3 hours, 150 mg/kg i.p.
  Gastric Contents Volume: 0.7 ± 0.3 mL
  Gastric Contents Volume % change: 75.9%
  Titratable Acid Output: 9.8 ± 3.3 μEg
  Titratable Acid Output % change: 88.1%
  Titratable Pepsin Output: 1.4 ± 0.7 mg
  Titratable Pepsin Output % change: 75.9%
[2]; 3 hours, 300 mg/kg i.p.
  Gastric Contents Volume: 0.5 ± 0.2 mL
  Gastric Contents Volume % change: 82.8%
  Titratable Acid Output: 4.6 ± 3.3 μEg
  Titratable Acid Output % change: 94.4%
  Titratable Pepsin Output: 0.9 ± 0.6 mg
  Titratable Pepsin Output % change: 84.5%
[2]; 6 hours, 75 mg/kg i.p.
  Gastric Contents Volume: 4.2 ± 0.6 mL
  Gastric Contents Volume % change: 31.1%
  Titratable Acid Output: 259.8 ± 61.8 μEq
  Titratable Acid Output % change: 32.0%
  Titratable Pepsin Output: 13.9 ± 3.0 mg
  Titratable Pepsin Output % change: 35.9%
[2]; 6 hours, 150 mg/kg i.p.
  Gastric Contents Volume: 1.5 ± 0.3 mL
  Gastric Contents Volume % change: 75.4%
  Titratable Acid Output: 85.3 ± 49.4 μEq
  Titratable Acid Output % change: 77.7%
  Titratable Pepsin Output: 4.7 ± 1.1 mg
  Titratable Pepsin Output % change: 78.3%
[2]; 6 hours, 300 mg/kg i.p.
  Gastric Contents Volume: 1.5 ± 0.3 mL
  Gastric Contents Volume % change: 75.4%
  Titratable Acid Output: 70.4 ± 30.4 μEq
  Titratable Acid Output % change: 81.6%
  Titratable Pepsin Output: 3.5 ± 1.4 mg
  Titratable Pepsin Output % change: 83.9%
[2]; 12 hours, 75 mg/kg i.p.
  Gastric Contents Volume: 5.2 ± 2.1 mL
  Gastric Contents Volume % change: 61.5%
  Titratable Acid Output: 394.6 ± 136.5 μEq
  Titratable Acid Output % change: 51.9%
  Titratable Pepsin Output: 27.3 ± 8.6 mg
  Titratable Pepsin Output % change: 52.9%
[2]; 12 hours, 150 mg/kg i.p.
  Gastric Contents Volume: 6.3 ± 0.9 mL
  Gastric Contents Volume % change: 53.3%
  Titratable Acid Output: 387.3 ± 79.3 μEq
  Titratable Acid Output % change: 52.8%
  Titratable Pepsin Output: 24.0 ± 4.2 mg
  Titratable Pepsin Output % change: 58.6%
[2]; 12 hours, 300 mg/kg i.p.
  Gastric Contents Volume: 3.6 ± 0.6 mL
  Gastric Contents Volume % change: 73.3%
  Titratable Acid Output: 258.4 ± 66.9 μEq
  Titratable Acid Output % change: 68.5%
  Titratable Pepsin Output: 14.0 ± 2.4 mg
  Titratable Pepsin Output % change: 75.9%
[3]
  Inhibition (%) Urokinase: 32%
[4]
  Inhibition (%) Trypsin: 79%
[5]; female mice, read-out: LD50 Female
  LD50 at 168 h: > 8000 mg/kg
[5]; male mice, read-out: LD50 male
  LD50 at 168 h: 7600 mg/kg
[6]
  Inhibition (%) Thrombin: 37%
[7]; 125 mg/kg p.o. daily×10
  Ulcer Grade 1 (number of rats): 15
  Ulcer Grade 2 (number of rats): 1
  Ulcer Grade 3 (number of rats): 2
  Ulcer Grade 4 (number of rats): 0
  Ulcer Grade 5 (number of rats): 0
[7]; 250 mg/kg p.o. daily×10
  Ulcer Grade 1 (number of rats): 14
  Ulcer Grade 2 (number of rats): 1
  Ulcer Grade 3 (number of rats): 1
  Ulcer Grade 4 (number of rats): 0
  Ulcer Grade 5 (number of rats): 0
[7]; 500 mg/kg p.o. daily×10
  Ulcer Grade 1 (number of rats): 16
  Ulcer Grade 2 (number of rats): 2
  Ulcer Grade 3 (number of rats): 0
  Ulcer Grade 4 (number of rats): 0
  Ulcer Grade 5 (number of rats): 0
